Results taken from ChEMBL document CHEMBL4507292 (2021).
pIC50, pKi: −log10 of the molar value.

Experiments:
Homo sapiens = organism: Homo sapiens; assay: Calcitonin Gene-Related Peptide CGRP1 Eurofins-Panlabs radioligand binding assay; format: protein-complex assay; conditions: Compound concentration 10.0 uM
[1] = target: Peroxisome proliferator-activated receptor gamma (Homo sapiens) (UniProt P37231); assay: PPARgamma Eurofins-Panlabs radioligand binding assay; design: ligand concentration 5 nM, non-specific ligand with concentration 0.5 µM L-797773, incubation time 18 h, incubation temperature 15 °C; conditions: Compound concentration 10.0 uM
Chain of Peroxisome proliferator-activated receptor gamma (Homo sapiens) (P37231 whole entry): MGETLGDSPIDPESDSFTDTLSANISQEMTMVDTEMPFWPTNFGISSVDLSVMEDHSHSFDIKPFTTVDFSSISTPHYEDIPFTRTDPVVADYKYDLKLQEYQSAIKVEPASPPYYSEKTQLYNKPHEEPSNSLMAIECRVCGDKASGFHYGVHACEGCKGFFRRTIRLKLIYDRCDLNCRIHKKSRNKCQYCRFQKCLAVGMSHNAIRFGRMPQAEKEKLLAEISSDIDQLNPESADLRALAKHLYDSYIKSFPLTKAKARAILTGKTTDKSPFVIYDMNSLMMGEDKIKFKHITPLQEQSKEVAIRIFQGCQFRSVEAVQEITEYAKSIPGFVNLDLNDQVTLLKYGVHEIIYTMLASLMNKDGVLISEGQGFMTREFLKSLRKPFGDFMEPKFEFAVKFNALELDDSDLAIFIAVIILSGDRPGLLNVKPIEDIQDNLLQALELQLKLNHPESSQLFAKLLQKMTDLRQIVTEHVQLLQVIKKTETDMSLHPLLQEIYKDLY

[2] = target: T1, Epidermal growth factor receptor (Homo sapiens, UniProt P00533); assay: Protein Tyrosine Kinase, EGF Receptor Eurofins-Panlabs enzyme assay; design: substrate with concentration 10 µg/mL Poly(Glu:Tyr), incubation time 60 min, incubation temperature 25 °C
T1 sequence (P00533 whole entry): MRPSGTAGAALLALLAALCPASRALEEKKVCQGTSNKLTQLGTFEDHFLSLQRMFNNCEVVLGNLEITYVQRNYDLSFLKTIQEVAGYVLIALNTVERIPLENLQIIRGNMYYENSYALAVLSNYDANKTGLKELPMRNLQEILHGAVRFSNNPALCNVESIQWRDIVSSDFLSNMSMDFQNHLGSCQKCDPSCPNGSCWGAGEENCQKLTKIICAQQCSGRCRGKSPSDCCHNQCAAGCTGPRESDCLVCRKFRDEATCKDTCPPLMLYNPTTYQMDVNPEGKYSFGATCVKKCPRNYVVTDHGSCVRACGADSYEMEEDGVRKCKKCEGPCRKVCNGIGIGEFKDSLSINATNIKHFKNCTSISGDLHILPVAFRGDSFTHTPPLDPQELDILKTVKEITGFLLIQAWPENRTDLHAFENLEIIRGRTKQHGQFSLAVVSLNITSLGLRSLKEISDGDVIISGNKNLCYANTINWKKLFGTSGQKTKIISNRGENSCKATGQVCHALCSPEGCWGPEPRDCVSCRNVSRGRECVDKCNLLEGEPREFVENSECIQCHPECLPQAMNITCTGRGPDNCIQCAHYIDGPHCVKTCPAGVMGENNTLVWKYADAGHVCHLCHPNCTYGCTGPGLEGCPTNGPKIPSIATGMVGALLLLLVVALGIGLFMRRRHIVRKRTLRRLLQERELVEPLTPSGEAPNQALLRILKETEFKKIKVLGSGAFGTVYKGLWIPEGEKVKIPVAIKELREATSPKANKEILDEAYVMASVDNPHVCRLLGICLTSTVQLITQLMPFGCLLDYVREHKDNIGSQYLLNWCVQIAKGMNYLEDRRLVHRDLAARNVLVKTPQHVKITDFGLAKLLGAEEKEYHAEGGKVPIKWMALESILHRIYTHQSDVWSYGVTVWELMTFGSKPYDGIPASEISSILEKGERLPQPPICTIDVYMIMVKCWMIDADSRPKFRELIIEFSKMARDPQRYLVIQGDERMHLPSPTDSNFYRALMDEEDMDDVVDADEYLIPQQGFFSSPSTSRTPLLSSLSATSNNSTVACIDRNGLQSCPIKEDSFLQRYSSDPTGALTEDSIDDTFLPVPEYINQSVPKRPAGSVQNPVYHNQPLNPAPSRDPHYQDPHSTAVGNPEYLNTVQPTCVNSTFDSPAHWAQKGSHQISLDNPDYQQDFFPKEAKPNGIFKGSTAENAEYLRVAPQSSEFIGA

[3] = target: Substance-K receptor (Homo sapiens) (UniProt P21452); assay: Inhibition of Tachykinin NK2 at 10 µM in the Eurofins-Panlabs radioligand binding assay (Eurofins_assay_255600); design: ligand concentration 0.5 nM; conditions: Compound concentration 10.0 uM
Chain of Substance-K receptor (Homo sapiens) (P21452 whole entry): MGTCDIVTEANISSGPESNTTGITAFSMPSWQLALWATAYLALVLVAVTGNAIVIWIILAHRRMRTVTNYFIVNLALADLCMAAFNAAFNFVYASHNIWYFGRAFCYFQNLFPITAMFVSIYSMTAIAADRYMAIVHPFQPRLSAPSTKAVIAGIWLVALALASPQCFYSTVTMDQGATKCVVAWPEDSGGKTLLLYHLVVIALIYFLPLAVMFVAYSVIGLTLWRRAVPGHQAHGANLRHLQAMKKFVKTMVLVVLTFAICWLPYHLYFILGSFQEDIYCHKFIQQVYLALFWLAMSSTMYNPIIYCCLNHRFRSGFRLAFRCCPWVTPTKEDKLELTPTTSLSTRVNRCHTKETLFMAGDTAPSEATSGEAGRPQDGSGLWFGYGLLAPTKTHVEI

[4] = target: Neutrophil elastase (Homo sapiens) (UniProt P08246); assay: Peptidase, ELA2 (Neutrophil Elastase 2) Eurofins-Panlabs enzyme assay; conditions: Compound concentration 30.0 uM
Chain of Neutrophil elastase (Homo sapiens) (P08246 whole entry): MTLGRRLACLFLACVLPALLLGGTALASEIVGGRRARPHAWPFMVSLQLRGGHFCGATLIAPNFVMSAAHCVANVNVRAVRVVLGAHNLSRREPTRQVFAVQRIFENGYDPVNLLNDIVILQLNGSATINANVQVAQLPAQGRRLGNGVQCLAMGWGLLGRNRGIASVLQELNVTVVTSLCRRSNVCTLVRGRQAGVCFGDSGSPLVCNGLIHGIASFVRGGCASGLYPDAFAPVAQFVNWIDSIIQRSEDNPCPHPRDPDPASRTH

[5] = target: T1, Epidermal growth factor receptor; assay: Inhibition of Epidermal Growth Factor (EGF) at 10 µM in the Eurofins-Panlabs radioligand binding assay (Eurofins_assay_225510)
[6] = target: T2, Prostaglandin E2 receptor EP3 subtype (Homo sapiens) (UniProt P43115); assay: Prostanoid EP3 Eurofins-Panlabs radioligand binding assay; design: ligand concentration 0.5 nM, non-specific ligand with concentration 10 µM Prostaglandin EŽ2 (PGE2), incubation time 60 min, incubation temperature 25 °C
T2 sequence (whole entry): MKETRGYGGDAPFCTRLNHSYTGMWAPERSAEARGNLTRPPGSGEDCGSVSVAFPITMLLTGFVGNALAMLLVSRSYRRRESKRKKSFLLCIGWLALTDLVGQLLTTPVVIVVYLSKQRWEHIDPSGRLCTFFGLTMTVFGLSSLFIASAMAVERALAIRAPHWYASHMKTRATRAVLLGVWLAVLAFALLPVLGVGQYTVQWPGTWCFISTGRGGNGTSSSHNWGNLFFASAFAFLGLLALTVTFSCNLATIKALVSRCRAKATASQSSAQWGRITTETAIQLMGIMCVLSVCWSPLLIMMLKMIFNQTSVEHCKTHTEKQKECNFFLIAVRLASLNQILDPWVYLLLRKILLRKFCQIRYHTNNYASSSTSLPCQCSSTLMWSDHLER

[7] = target: T3, Alpha-2B adrenergic receptor (Homo sapiens) (UniProt P18089); conditions: Compound concentration 10.0 uM
T3 sequence (whole entry): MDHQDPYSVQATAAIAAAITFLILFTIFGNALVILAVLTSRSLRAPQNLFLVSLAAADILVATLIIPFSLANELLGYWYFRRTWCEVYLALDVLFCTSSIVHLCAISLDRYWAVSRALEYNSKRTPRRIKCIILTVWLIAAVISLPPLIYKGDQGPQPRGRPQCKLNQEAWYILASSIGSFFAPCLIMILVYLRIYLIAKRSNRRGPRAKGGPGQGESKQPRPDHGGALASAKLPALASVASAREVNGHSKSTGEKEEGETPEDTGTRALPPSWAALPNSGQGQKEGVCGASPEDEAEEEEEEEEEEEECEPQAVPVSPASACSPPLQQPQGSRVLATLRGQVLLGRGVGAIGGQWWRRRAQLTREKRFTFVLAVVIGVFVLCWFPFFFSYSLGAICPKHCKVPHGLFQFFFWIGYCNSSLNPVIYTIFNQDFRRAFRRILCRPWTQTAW

Insulin receptor = Insulin receptor (Homo sapiens, UniProt P06213); assay: Protein Tyrosine Kinase, Insulin Receptor Eurofins-Panlabs enzyme assay; design: substrate with concentration 10 µg/mL […], incubation time 60 min, incubation temperature 25 °C
Chain of Insulin receptor (P06213 28-758 limits assumed): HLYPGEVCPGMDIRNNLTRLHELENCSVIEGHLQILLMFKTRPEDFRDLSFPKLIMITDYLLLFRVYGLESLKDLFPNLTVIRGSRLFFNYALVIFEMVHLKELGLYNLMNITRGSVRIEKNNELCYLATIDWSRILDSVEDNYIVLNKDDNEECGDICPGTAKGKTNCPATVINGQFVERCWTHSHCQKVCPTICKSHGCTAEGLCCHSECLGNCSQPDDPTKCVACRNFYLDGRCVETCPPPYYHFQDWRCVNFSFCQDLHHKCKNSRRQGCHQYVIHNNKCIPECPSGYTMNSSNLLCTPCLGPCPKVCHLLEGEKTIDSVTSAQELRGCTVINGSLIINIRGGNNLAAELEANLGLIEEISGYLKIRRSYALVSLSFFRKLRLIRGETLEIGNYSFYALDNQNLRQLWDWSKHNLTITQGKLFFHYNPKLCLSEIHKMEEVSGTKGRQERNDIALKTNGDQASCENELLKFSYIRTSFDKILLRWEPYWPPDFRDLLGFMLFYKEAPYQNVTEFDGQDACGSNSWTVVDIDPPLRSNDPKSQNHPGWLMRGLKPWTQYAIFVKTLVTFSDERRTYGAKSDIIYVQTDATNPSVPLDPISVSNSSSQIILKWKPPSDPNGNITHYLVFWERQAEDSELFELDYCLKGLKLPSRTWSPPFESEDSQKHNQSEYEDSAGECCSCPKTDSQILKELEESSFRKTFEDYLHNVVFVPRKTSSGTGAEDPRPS
Chain of Insulin receptor (P06213 763-1382 limits assumed): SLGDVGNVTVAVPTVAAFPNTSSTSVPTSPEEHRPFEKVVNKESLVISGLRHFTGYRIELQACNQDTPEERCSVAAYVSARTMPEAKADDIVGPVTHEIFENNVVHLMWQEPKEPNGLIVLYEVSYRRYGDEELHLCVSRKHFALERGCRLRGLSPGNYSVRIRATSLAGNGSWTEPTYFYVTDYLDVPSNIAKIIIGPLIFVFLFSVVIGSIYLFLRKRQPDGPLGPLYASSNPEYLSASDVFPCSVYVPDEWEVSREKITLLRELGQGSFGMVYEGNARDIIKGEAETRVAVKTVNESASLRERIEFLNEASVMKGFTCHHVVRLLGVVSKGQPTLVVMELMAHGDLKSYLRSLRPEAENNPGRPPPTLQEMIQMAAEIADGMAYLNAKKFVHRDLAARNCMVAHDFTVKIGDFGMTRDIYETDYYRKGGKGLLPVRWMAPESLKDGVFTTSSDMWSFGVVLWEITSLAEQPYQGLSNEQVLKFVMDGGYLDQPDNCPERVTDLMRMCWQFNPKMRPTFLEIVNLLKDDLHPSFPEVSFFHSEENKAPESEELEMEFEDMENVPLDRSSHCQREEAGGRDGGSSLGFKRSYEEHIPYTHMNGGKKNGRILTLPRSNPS

[8] = target: 5-hydroxytryptamine receptor 1B (Homo sapiens) (UniProt P28222); assay: Inhibition of Serotonin (5-Hydroxytryptamine) 5-HT1B at 10 µM in the Eurofins-Panlabs radioligand binding assay (Eurofins_assay_271200); conditions: Compound concentration 10.0 uM
[9] = Inhibition of Atrial Natriuretic Factor (ANF) at 10 µM in the Eurofins-Panlabs radioligand binding assay (Eurofins_assay_211000); conditions: Cavia porcellus
Rattus norvegicus = organism: Rattus norvegicus; assay: Testosterone Eurofins-Panlabs radioligand binding assay; design: ligand concentration 1.5 nM; conditions: Compound concentration 10.0 uM
[10] = target: Polyunsaturated fatty acid lipoxygenase ALOX12 (Homo sapiens) (UniProt P18054); assay: Lipoxygenase 12-LO Eurofins-Panlabs enzyme assay; design: substrate with concentration; conditions: Compound concentration 10.0 uM
Chain of Polyunsaturated fatty acid lipoxygenase ALOX12 (Homo sapiens) (P18054 whole entry): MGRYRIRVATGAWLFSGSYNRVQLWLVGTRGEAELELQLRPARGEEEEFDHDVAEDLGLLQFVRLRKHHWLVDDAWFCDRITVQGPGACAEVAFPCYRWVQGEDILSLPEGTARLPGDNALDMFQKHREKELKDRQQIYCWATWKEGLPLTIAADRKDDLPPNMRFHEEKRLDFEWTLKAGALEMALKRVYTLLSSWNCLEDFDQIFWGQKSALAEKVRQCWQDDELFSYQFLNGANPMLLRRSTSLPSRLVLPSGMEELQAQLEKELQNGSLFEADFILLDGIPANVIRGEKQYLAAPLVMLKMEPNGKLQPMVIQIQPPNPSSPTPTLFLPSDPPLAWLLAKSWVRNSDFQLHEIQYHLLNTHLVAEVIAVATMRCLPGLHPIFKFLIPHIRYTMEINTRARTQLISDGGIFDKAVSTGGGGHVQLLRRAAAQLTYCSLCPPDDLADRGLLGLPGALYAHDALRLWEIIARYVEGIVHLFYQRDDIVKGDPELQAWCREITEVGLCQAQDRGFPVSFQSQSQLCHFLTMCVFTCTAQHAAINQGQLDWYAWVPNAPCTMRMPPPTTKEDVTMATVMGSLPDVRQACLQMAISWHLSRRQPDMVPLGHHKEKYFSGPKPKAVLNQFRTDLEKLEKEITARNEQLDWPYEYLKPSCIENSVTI

[11] = target: Histamine H3 receptor (Homo sapiens) (UniProt Q9Y5N1); assay: Histamine H3 Eurofins-Panlabs radioligand binding assay; conditions: Compound concentration 10.0 uM
[12] = target: Neurotensin receptor type 1 (Homo sapiens, UniProt P30989); assay: Neurotensin NT1 Eurofins-Panlabs radioligand binding assay; design: ligand concentration 0.02 nM, non-specific ligand with concentration 1 µM Neurotensin, incubation time 45 min, incubation temperature 25 °C
Chain of Neurotensin receptor type 1 (P30989 whole entry): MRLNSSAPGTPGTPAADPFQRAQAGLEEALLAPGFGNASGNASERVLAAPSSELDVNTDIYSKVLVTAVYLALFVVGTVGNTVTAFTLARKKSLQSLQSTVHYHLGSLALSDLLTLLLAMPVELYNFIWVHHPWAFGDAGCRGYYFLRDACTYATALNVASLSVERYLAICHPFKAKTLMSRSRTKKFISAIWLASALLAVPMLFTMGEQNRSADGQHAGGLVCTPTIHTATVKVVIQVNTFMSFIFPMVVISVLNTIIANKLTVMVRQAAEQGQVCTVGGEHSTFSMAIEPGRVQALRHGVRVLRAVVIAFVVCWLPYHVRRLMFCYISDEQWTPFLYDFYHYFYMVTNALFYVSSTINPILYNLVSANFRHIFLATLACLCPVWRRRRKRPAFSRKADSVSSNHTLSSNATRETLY

[13] = target: SNF-related serine/threonine-protein kinase (Homo sapiens) (UniProt Q9NRH2); conditions: Compound concentration 1000.0 nM
[14] = target: Endothelin-converting enzyme 1 (Homo sapiens) (UniProt P42892); assay: Peptidase, Endothelin Converting Enzyme-1 (ECE-1) Eurofins-Panlabs enzyme assay; conditions: Compound concentration 10.0 uM
[15] = target: Mitogen-activated protein kinase 14 (Homo sapiens, UniProt Q16539); assay: NanoBRET (SGC Frankfurt) (MAPK14)
[16] = target: Inositol 1,4,5-trisphosphate-gated calcium channel ITPR1 (Homo sapiens) (UniProt Q14643); assay: Inositol Trisphosphate IP3 Eurofins-Panlabs radioligand binding assay; conditions: Rattus norvegicus; Compound concentration 10.0 uM
[17] = target: T4, D(4) dopamine receptor (Homo sapiens) (UniProt P21917); assay: Dopamine D4.4 Eurofins-Panlabs radioligand binding assay; design: ligand concentration 1.2 nM; conditions: Compound concentration 10.0 uM
T4 sequence (whole entry): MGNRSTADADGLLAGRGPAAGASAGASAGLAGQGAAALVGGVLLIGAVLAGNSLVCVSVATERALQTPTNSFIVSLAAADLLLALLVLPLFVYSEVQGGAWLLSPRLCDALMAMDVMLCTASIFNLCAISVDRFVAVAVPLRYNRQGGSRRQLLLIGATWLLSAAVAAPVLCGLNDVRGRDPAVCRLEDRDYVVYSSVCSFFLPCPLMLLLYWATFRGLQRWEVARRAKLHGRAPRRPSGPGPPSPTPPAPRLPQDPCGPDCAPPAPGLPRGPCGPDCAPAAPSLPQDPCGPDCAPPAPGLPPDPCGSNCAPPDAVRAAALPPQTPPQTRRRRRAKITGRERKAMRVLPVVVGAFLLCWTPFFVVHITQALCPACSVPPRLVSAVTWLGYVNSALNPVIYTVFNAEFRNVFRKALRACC

O=C(O)c1cc(-c2ccc(C3CCNCC3)cc2)c2ccc(-c3ccc(C(F)(F)F)cc3)cc2c1 [PPTN]
active: inhibition ([2]; Compound concentration 10.0 uM) 74% | inhibition ([6]; Compound concentration 10.0 uM) 53% | inhibition (Insulin receptor; Compound concentration 10.0 uM) 75% | inhibition ([12]; Compound concentration 10.0 uM) 69%
5.37: pIC50 (Insulin receptor)
-1% (not active): inhibition at 10 µM [9]
5.16: pKi [12]
inactive: inhibition (Homo sapiens) 26% | inhibition [1] 4% | inhibition ([2]; Compound concentration 0.01 uM) -6% | inhibition ([2]; Compound concentration 0.1 uM) -3% | inhibition ([2]; Compound concentration 1.0 uM) 12% | inhibition [3] 26% | inhibition [4] -4% | inhibition [5] 35% | inhibition ([6]; Compound concentration 0.01 uM) 11% | inhibition ([6]; Compound concentration 0.1 uM) 14% | inhibition ([6]; Compound concentration 1.0 uM) 4% | inhibition [7] -1% | inhibition (Insulin receptor; Compound concentration 0.01 uM) 1% | inhibition (Insulin receptor; Compound concentration 0.1 uM) -10% | inhibition (Insulin receptor; Compound concentration 1.0 uM) 14% | inhibition [8] -4% | inhibition (Rattus norvegicus) 26% | inhibition [10] 30% | inhibition [11] 0% | inhibition ([12]; Compound concentration 0.01 uM) 11% | inhibition ([12]; Compound concentration 0.1 uM) 10% | inhibition ([12]; Compound concentration 1.0 uM) -9% | residual activity [13] 71% | inhibition [14] 12% | inhibition [16] 9% | inhibition [17] -8%
5.34: pIC50 [2]
5.06: pIC50 [12]
> 20 µM (not active): IC50 [15]
